Measured values published in patent US20260274892A1, “MACROCYCLIC BROAD SPECTRUM ANTIBIOTICS” (RQx Pharmaceuticals, Inc., priority 2017, published 2026).

Experiments:
[1] = test system: Escherichia coli ATCC 25922; assay: Minimum inhibitory concentration (MIC), CLSI broth micro-dilution, E. coli; assay type: cell-based; conditions: Escherichia coli, ATCC25922, 22 h, Table 6, cation adjusted Mueller Hinton Broth + 0.002% Tween-80, 35° C.
Summary of the method: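 Antibacterial potency is measured as MIC by the CLSI broth dilution method. Bacteria at OD600 0.0005 in Tween-80-supplemented cation-adjusted Mueller Hinton broth face ten twofold compound dilutions for 22 h at 35° C.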

[2] = test system: Methicillin Resistant Staphylococcus aureus strain USA 200; assay: Minimum inhibitory concentration (MIC), CLSI broth micro-dilution, S. aureus; assay type: cell-based; conditions: Staphylococcus aureus, MRSA / USA200; Table 6; MRSA USA 200; cation adjusted Mueller Hinton Broth + 0.002% Tween-80; 35° C., 22 hours
Procedure: In vitro antimicrobial activity of each compound was determined by measuring minimal inhibitor concentrations (MICs) using the broth micro-dilution technique as approved by the Clinical and Laboratory Standards Institute (CLSI) (Methods for Dilution Antimicrobial Susceptibility Tests for Bacteria that Grow Aerobically; Approved Standard-Eighth Edition. CLSI document M07-A8. Wayne, PA: Clinical and Laboratroy Standards; 2009). Antibacterial activity was measure against two strains of bacteria: a Methicillin Resistant Staphylococcus aureus strain USA 200, (S. aureus) and Escherichia coli ATCC 25922 (E. coli), a clinically relevant Gram-negative strain. Cells were inoculated onto plates of Trypyticase Soy Agar or Luria Agar respectively and grown at 35° C. for 20 hours. Inocula suspensions were prepared by scraping cells into 1 mL of testing media (cation adjusted Mueller Hinton Broth supplemented with 0.002% v/v Tween-80) and diluting to a final OD600nm of 0.01.
Test compounds were prepared in DMSO at a concentration of 10 mg/mL. In protocol 1, the compound stocks were diluted into testing media at a concentration of 64 µg/ml and serial 2-fold dilutions were made in the same media, in 96-well U bottom microtiter dishes, for a total of 10 compound concentrations. In protocol 2, the compound stocks were diluted into testing media at a concentration of 4 µg/mL and serial 2-fold dilutions were made in the same media, in 96-well U bottom microtiter dishes, for a total of 10 compound concentrations. In protocol 3, compound stocks were diluted into testing media at a concentration of 0.5 μg/mL, with serial 2-fold dilutions conducted as described above. In protocol 4, compound stocks were diluted into testing media at a concentration of […], with serial 2-fold dilutions conducted as described above. Inocula suspensions were added to the 2-fold serial dilutions of test compounds to a final density of GD OD600nm of 0.0005 and incubated at 35° C. for 22 hours.

Structure (SMILES)	MIC [1] [µM]	MIC [2] [µM]
CCCCCCc1ccc2cc(C(=O)N[C@@H](CCN)C(=O)N(C)[C@@H]3C(=O)N[C@@H](C)C(=O)N[C@H](C(=O)NCC#N)Cc4ccc(OCCN)c(c4)-c4cc3ccc4OCCN)c(C)nc2c1 (racemic) [Compound 394, rac-(8S,11S,14S)-3,18-bis(2-aminoethoxy)-N-(cyanomethyl)-11-methyl-14-[methyl-[rac-(2S)-4-amino-2-[(7-hexyl-2-methyl-quinoline-3-carbonyl)amino]butanoyl]amino]-10,13-dioxo-9,12-diazatricyclo[13.3.1.12,6]icosa-1(18),2(20),3,5,15(19),16-hexaene-8-carboxamide]	0.2	0.0083
Cc1nc(-c2ccc(C(C)(C)C)cc2)nc(N)c1C(=O)N[C@@H](CCN)C(=O)N(C)[C@@H]1C(=O)N[C@@H](C)C(=O)N[C@H](C(=O)NCC#N)Cc2ccc(O)c(c2)-c2cc1ccc2OCCN (racemic) [Compound 548, rac-(8S,11S,14S)-18-(2-aminoethoxy)-N-(cyanomethyl)-3-hydroxy-11-methyl-14-[methyl-[rac-(2S)-4-amino-2-[[4-amino-2-(4-tert-butylphenyl)-6-methyl-pyrimidine-5-carbonyl]amino]butanoyl]amino]-10,13-dioxo-9,12-diazatricyclo[13.3.1.12,6]icosa-1(18),2(20),3,5,15(19),16-hexaene-8-carboxamide]	0.46	0.047
Cc1cc(C(=O)N[C@@H](CCN)C(=O)N(C)[C@@H]2C(=O)N[C@@H](C)C(=O)N[C@H](C(=O)NCC#N)Cc3ccc(OCCN)c(c3)-c3cc2ccc3OCCN)c(C)nc1-c1ccc(C(C)(C)C)cc1 (racemic) [Compound 402, rac-(8S,11S,14S)-3,18-bis(2-aminoethoxy)-N-(cyanomethyl)-11-methyl-14-[methyl-[rac-(2S)-4-amino-2-[[6-(4-tert-butylphenyl)-2,5-dimethyl-pyridine-3-carbonyl]amino]butanoyl]amino]-10,13-dioxo-9,12-diazatricyclo[13.3.1.12,6]icosa-1(18),2(20),3,5,15(19),16-hexaene-8-carboxamide]	0.38	0.031
CCc1nc(-c2ccc(C(C)(C)C)cc2)nc(C)c1C(=O)N[C@@H](CCN)C(=O)N(C)[C@@H]1C(=O)N[C@@H](C)C(=O)N[C@H](C(=O)NCC#N)Cc2ccc(OCCN)c(c2)-c2cc1ccc2OCCN [Compound 485]	0.5	0.023
CCCCc1ccc(-c2ncc(C(=O)N[C@@H](CCN)C(=O)N(C)[C@@H]3C(=O)N[C@@H](C)C(=O)N[C@H](C(=O)NCC#N)Cc4ccc(OCCN)c(c4)-c4cc3ccc4OCCN)c(C)n2)c(Cl)c1 (racemic) [Compound 235, rac-(8S,11S,14S)-3,18-bis(2-aminoethoxy)-N-(cyanomethyl)-11-methyl-14-[methyl-[rac-(2S)-4-amino-2-[[2-(4-butyl-2-chloro-phenyl)-4-methyl-pyrimidine-5-carbonyl]amino]butanoyl]amino]-10,13-dioxo-9,12-diazatricyclo[13.3.1.12,6]icosa-1(18),2(20),3,5,15(19),16-hexaene-8-carboxamide]	0.26	0.016
Cc1nc(-c2ccc(O)cc2)ncc1C(=O)N[C@@H](CCN)C(=O)N(C)[C@@H]1C(=O)N[C@@H](C)C(=O)N[C@H](C(=O)NCC#N)Cc2ccc(OCCN)c(c2)-c2cc1ccc2OCCN (racemic) [Compound 524, rac-(8S,11S,14S)-3,18-bis(2-aminoethoxy)-N-(cyanomethyl)-11-methyl-14-[methyl-[rac-(2S)-4-amino-2-[[2-(4-hydroxyphenyl)-4-methyl-pyrimidine-5-carbonyl]amino]butanoyl]amino]-10,13-dioxo-9,12-diazatricyclo[13.3.1.12,6]icosa-1(18),2(20),3,5,15(19),16-hexaene-8-carboxamide]	4.5	0.56
CCc1ccc(-c2ncc(C(=O)N[C@@H](CCN)C(=O)N(C)[C@@H]3C(=O)N[C@@H](C)C(=O)N[C@H](C(=O)NCC#N)Cc4ccc(OCCN)c(c4)-c4cc3ccc4OCCN)c(C)n2)c2ccccc12 (racemic) [Compound 221, rac-(8S,11S,14S)-3,18-bis(2-aminoethoxy)-N-(cyanomethyl)-11-methyl-14-[methyl-[rac-(2S)-4-amino-2-[[2-(4-ethyl-1-naphthyl)-4-methyl-pyrimidine-5-carbonyl]amino]butanoyl]amino]-10,13-dioxo-9,12-diazatricyclo[13.3.1.12,6]icosa-1(18),2(20),3,5,15(19),16-hexaene-8-carboxamide]	1	0.024

Molecules with a lower MIC [1], results first:

MIC [1] [µM]	MIC [2] [µM]	Structure (SMILES)
0.14	0.012	Cc1nc(-c2ccc(C(C)(C)C)cc2)nc(C)c1C(=O)N[C@@H](CCN)C(=O)N(C)[C@@H]1C(=O)N[C@@H](C)C(=O)N[C@H](C(=O)NCC#N)Cc2ccc(OCCN)c(c2)-c2cc1ccc2OCCN (racemic) [Compound 253, rac-(8S,11S,14S)-3,18-bis(2-aminoethoxy)-N-(cyanomethyl)-11-methyl-14-[methyl-[rac-(2S)-4-amino-2-[[2-(4-tert-butylphenyl)-4,6-dimethyl-pyrimidine-5-carbonyl]amino]butanoyl]amino]-10,13-dioxo-9,12-diazatricyclo[13.3.1.12,6]icosa-1(18),2(20),3,5,15(19),16-hexaene-8-carboxamide]
0.13	0.016	Cc1nc(-c2ccc(C(C)(C)C)cc2)cc(N)c1C(=O)N[C@@H](CCN)C(=O)N(C)[C@@H]1C(=O)N[C@@H](C)C(=O)N[C@H](C(=O)NCC#N)Cc2ccc(OCCN)c(c2)-c2cc1ccc2OCCN (racemic) [Compound 413, rac-(8S,11S,14S)-3,18-bis(2-aminoethoxy)-N-(cyanomethyl)-11-methyl-14-[methyl-[rac-(2S)-4-amino-2-[[4-amino-6-(4-tert-butylphenyl)-2-methyl-pyridine-3-carbonyl]amino]butanoyl]amino]-10,13-dioxo-9,12-diazatricyclo[13.3.1.12,6]icosa-1(18),2(20),3,5,15(19),16-hexaene-8-carboxamide]
0.099	0.0082	CC(C)=Cc1ccc(-c2nc(C)c(C(=O)N[C@@H](CCN)C(=O)N(C)[C@@H]3C(=O)N[C@@H](C)C(=O)N[C@H](C(=O)NCC#N)Cc4ccc(OCCN)c(c4)-c4cc3ccc4OCCN)c(C)n2)cc1 (racemic) [Compound 273, rac-(8S,11S,14S)-3,18-bis(2-aminoethoxy)-N-(cyanomethyl)-11-methyl-14-[methyl-[rac-(2S)-4-amino-2-[[4,6-dimethyl-2-[4-(2-methylprop-1-enyl)phenyl]pyrimidine-5-carbonyl]amino]butanoyl]amino]-10,13-dioxo-9,12-diazatricyclo[13.3.1.12,6]icosa-1(18),2(20),3,5,15(19),16-hexaene-8-carboxamide]
0.063	0.016	CCC(=Cc1ccc(-c2nc(C)c(C(=O)N[C@@H](CCN)C(=O)N(C)[C@@H]3C(=O)N[C@@H](C)C(=O)N[C@H](C(=O)NCC#N)Cc4ccc(OCCN)c(c4)-c4cc3ccc4OCCN)c(C)n2)cc1)CC (racemic) [Compound 276, rac-(8S,11S,14S)-3,18-bis(2-aminoethoxy)-N-(cyanomethyl)-11-methyl-14-[methyl-[rac-(2S)-4-amino-2-[[2-[4-(2-ethylbut-1-enyl)phenyl]-4,6-dimethyl-pyrimidine-5-carbonyl]amino]butanoyl]amino]-10,13-dioxo-9,12-diazatricyclo[13.3.1.12,6]icosa-1(18),2(20),3,5,15(19),16-hexaene-8-carboxamide]
